Like-named read-outs stand apart in the source and are kept apart here.
Experiments:
[1] = target: T1, gp96 in the presence of herbimycin A (Mus musculus, UniProt P08113); conditions: expected frequency for comparison with % actual, cited from earlier work
T1 construct: The mouse cDNA encoding mature gp96 (i.e., wherein the endoplasmic reticulum signal peptide has been removed) was incorporated into the pET 11 a expression vector; made in house; host or cells: Escherichia coli BL21 (pET11gp96)

[2] = target: T1, gp96 in the presence of herbimycin A; test: Affinity panning of phage display heptapeptide library on gp96 in the presence of herbimycin A; assay type: binding; conditions: for % actual (amino acid frequency in sequenced gp96-binding phage-expressed heptapeptides): TWEEN 20
Description: Preparation of a gp96 expression vector. The mouse cDNA encoding mature gp96 (i.e., wherein the endoplasmic reticulum signal peptide has been removed) was incorporated into the pET 11 a expression vector (Novagen) as follows. Gp96 cDNA insert was prepared by polymerase chain reaction (PCR) of a pRc/CMV clone containing the cDNA using the following oligonucleotide primers: […]
Expression of gp96. pET11gp96 was transformed into BL21 Escherichia coli cells, and plated on LB plates containing ampicillin (50 μg/ml). One of the resulting colonies was used to inoculate a 20 ml overnight culture of 2×TY medium containing ampicillin (150 μg/ml). The following day, the resulting culture was spun down and the harvested bacteria were resuspended in 1 ml of fresh medium. Two one liter cultures were then each inoculated with 0.5 ml of the harvested cells and allowed to grow at 37° C. until the optical density, measured at 600 nm, was 0.5. Then, IPTG was added to a concentration of 1 mM and the cells were cultured for another 3 hours before being harvested by centrifugation. The resulting cell pellet was resuspended in 20 ml of 50 mM HEPES pH 7.5, 50 mM KCl, 5 mM MgAcetate, 20% sucrose and 1 mM PMSF. Cell extracts were prepared by pressure shearing in a French Press. The lysates were then spun at 100,000×g for 1.5 hours and the supernatant, which constituted crude gp96 extract, was collected.
Purification of gp96. The following steps were all performed at 4° C. A 12.5 cm×3.2 cm column of DE52 resin (Whatman) was equilibrated in a solution of 50 mM MOPS pH 7.4, 10 mM NaCl, 5 mM MgAcetate (hereafter, “Buffer A”). The crude gp96 extract was diluted 2-fold and immediately loaded onto the column at a flow rate of 2 ml/min. Elution from the column was achieved using a gradient of a solution of 50 mM MOPS pH 7.4, 1M NaCl, 5 mM MgAcetate (hereafter, “Buffer B”) from 0% to 100% Buffer B over 1000 ml. The elution profile was examined by subjecting fractions collected from the column to SDS-PAGE analysis. Fractions containing gp96 were pooled and diluted 2-fold with cold water, and were immediately run onto the next column (see below).
A 10 cm×1 cm column of hydroxyapatite (BioRad) was washed with 100 ml 0.5 M K2HPO4, 50 mM KCl pH 7.4 and then equilibrated with 10 mM K2HPO4, 50 mM KCl pH 7.4. The pooled diluted fractions from the DE52 column were loaded onto this column at a flow rate of 1 ml/min. The gp96 protein was eluted in a gradient of 10-500 mM K2HPO4 over 800 ml. Fractions containing gp96 were pooled and loaded onto the phenylsepharose column described below.
A 9 cm×3 cm column of phenylsepharose (Pharmacia) was equilibrated with 500 mM NaCl, 50 mM MOPS pH 7.4. The pooled fractions containing gp96 from the hydroxyapatite were loaded onto this column at 1 ml/min and the gp96 was eluted in a gradient of 500-0 mM NaCl over 800 ml. The gp96 containing fractions collected from the column were identified by SDS-PAGE, pooled, and concentrated.
The gp96 was then loaded onto a Hi Load 26/60 Superdex-200 column (Pharmacia) equilibrated with 100 mM NaCl, 5 mM MgAcetate, 50 mM MOPS pH 7.5, 3 ml fractions were collected, and the fractions containing the most pure gp96 (as identified by SDS PAGE using a 12 percent reducing gel) and pooled. To the pooled fractions, glycerol was added to 10% (v/v), and then the fractions were concentrated to 21 mg/ml on a Centricon-50 concentrator (Amicon), frozen using liquid nitrogen, and stored at −80° C.
Affinity panning. The Ph.D. Phage Display Library Kit (New England BioLabs, Beverly, Mass.), was used for affinity panning. For each panning experiment, a well of a 96-well polystyrene microtiter plate (each well having a 6 mm diameter) was filled with 150 μl of a solution of 200 μg/ml of gp96 in 0.1 M NaHCO3 pH 8.3. If herbimycin A was to be included in the experiment, 1 μl of 10 mg/ml herbimycin A (GIBCO) in DMSO was added to each well, corresponding to a 50-fold molar excess relative to gp96. […]

[3] = Table XII, gp96 and herbimycin A, binding buffer without calcium: 20 mM HEPES pH 7.5, 100 mM KCl, 1 mM DTT, 1 mM MgAcetate, 42 phage-expressed peptides sequenced
[4] = Table XIV, gp96 in the presence of herbimycin A, binding buffer with ATP: 20 mM HEPES pH 7.5, 100 mM KCl, 1 mM CaCl2, 1 mM MgAcetate, 1 mM ATP
[5] = Table XVI, binding buffer with AMP-PNP instead of ATP: 20 mM HEPES pH 7.5, 100 mM KCl, 1 mM CaCl2, 1 mM MgAcetate, 1 mM AMP-PNP

T1 sequence (P08113 22-802): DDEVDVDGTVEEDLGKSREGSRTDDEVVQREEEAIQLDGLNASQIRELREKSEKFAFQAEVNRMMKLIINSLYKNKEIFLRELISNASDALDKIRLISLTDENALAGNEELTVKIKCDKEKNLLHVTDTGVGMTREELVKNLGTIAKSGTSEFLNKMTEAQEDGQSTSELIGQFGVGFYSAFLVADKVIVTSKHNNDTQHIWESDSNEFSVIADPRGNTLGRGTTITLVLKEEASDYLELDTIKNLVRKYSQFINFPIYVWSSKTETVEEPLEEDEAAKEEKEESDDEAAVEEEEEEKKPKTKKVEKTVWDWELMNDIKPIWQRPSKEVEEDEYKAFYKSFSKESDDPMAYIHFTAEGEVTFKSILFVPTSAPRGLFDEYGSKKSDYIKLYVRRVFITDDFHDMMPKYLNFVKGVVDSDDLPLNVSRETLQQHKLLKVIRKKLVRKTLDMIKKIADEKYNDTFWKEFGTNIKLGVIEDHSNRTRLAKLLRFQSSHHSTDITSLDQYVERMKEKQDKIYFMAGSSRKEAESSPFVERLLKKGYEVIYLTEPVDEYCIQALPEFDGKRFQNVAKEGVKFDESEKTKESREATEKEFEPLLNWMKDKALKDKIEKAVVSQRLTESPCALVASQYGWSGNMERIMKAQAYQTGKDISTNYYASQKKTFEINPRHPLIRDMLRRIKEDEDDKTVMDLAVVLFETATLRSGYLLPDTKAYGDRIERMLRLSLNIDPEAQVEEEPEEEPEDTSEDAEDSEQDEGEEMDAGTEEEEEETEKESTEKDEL

N[C@@H](Cc1ccc(O)cc1)C(=O)O [Tyr]
% expected (amino acid frequency) ([1]; Table XII): 2.9% | % expected (amino acid frequency) ([1]; Table XIV): 2.9% | % expected (amino acid frequency) ([1]; Table XVI): 2.9% | % actual (amino acid frequency in sequenced gp96-binding phage-expressed heptapeptides) [2, 3]: 4.76% | % actual (amino acid frequency in sequenced gp96-binding phage-expressed heptapeptides) [2, 4]: 7.1% | % actual (amino acid frequency in sequenced gp96-binding phage-expressed heptapeptides) [2, 5]: 4.28%

N[C@@H](Cc1c[nH]c2ccccc12)C(=O)O [Trp]
% expected (amino acid frequency) ([1]; Table XII): 1% | % expected (amino acid frequency) ([1]; Table XIV): 1% | % expected (amino acid frequency) ([1]; Table XVI): 1% | % actual (amino acid frequency in sequenced gp96-binding phage-expressed heptapeptides) [2, 3]: 1.36% | % actual (amino acid frequency in sequenced gp96-binding phage-expressed heptapeptides) [2, 4]: 3.57% | % actual (amino acid frequency in sequenced gp96-binding phage-expressed heptapeptides) [2, 5]: 2.85%

N[C@@H](CCC(=O)O)C(=O)O [Glu]
% expected (amino acid frequency) ([1]; Table XII): 1.2% | % expected (amino acid frequency) ([1]; Table XIV): 1.2% | % expected (amino acid frequency) ([1]; Table XVI): 1.2% | % actual (amino acid frequency in sequenced gp96-binding phage-expressed heptapeptides) [2, 3]: 2.0% | % actual (amino acid frequency in sequenced gp96-binding phage-expressed heptapeptides) [2, 4]: 0% | % actual (amino acid frequency in sequenced gp96-binding phage-expressed heptapeptides) [2, 5]: 0%

NC(=O)C[C@H](N)C(=O)O [Asn]
% expected (amino acid frequency) ([1]; Table XII): 4.1% | % expected (amino acid frequency) ([1]; Table XIV): 4.1% | % expected (amino acid frequency) ([1]; Table XVI): 4.1% | % actual (amino acid frequency in sequenced gp96-binding phage-expressed heptapeptides) [2, 3]: 3.06% | % actual (amino acid frequency in sequenced gp96-binding phage-expressed heptapeptides) [2, 4]: 5.3% | % actual (amino acid frequency in sequenced gp96-binding phage-expressed heptapeptides) [2, 5]: 5.7%

N=C(N)NCCC[C@H](N)C(=O)O [Arg]
% expected (amino acid frequency) ([1]; Table XII): 3.9% | % expected (amino acid frequency) ([1]; Table XIV): 3.9% | % expected (amino acid frequency) ([1]; Table XVI): 3.9% | % actual (amino acid frequency in sequenced gp96-binding phage-expressed heptapeptides) [2, 3]: 2.72% | % actual (amino acid frequency in sequenced gp96-binding phage-expressed heptapeptides) [2, 4]: 5.35% | % actual (amino acid frequency in sequenced gp96-binding phage-expressed heptapeptides) [2, 5]: 5.7%

C[C@H](N)C(=O)O [Ala]
% expected (amino acid frequency) ([1]; Table XII): 7.2% | % expected (amino acid frequency) ([1]; Table XIV): 7.2% | % expected (amino acid frequency) ([1]; Table XVI): 7.2% | % actual (amino acid frequency in sequenced gp96-binding phage-expressed heptapeptides) [2, 3]: 10.2% | % actual (amino acid frequency in sequenced gp96-binding phage-expressed heptapeptides) [2, 4]: 3.57% | % actual (amino acid frequency in sequenced gp96-binding phage-expressed heptapeptides) [2, 5]: 8.5%

N[C@@H](CO)C(=O)O [Ser]
% expected (amino acid frequency) ([1]; Table XII): 11.4% | % expected (amino acid frequency) ([1]; Table XIV): 11.4% | % expected (amino acid frequency) ([1]; Table XVI): 11.4% | % actual (amino acid frequency in sequenced gp96-binding phage-expressed heptapeptides) [2, 3]: 10.88% | % actual (amino acid frequency in sequenced gp96-binding phage-expressed heptapeptides) [2, 4]: 16.0% | % actual (amino acid frequency in sequenced gp96-binding phage-expressed heptapeptides) [2, 5]: 4.28%

N[C@@H](Cc1ccccc1)C(=O)O [Phe]
% expected (amino acid frequency) ([1]; Table XII): 2.9% | % expected (amino acid frequency) ([1]; Table XIV): 2.9% | % expected (amino acid frequency) ([1]; Table XVI): 2.9% | % actual (amino acid frequency in sequenced gp96-binding phage-expressed heptapeptides) [2, 3]: 2.38% | % actual (amino acid frequency in sequenced gp96-binding phage-expressed heptapeptides) [2, 4]: 0% | % actual (amino acid frequency in sequenced gp96-binding phage-expressed heptapeptides) [2, 5]: 2.85%

C[C@@H](O)[C@H](N)C(=O)O [Thr]
% expected (amino acid frequency) ([1]; Table XII): 9.3% | % expected (amino acid frequency) ([1]; Table XIV): 9.3% | % expected (amino acid frequency) ([1]; Table XVI): 9.3% | % actual (amino acid frequency in sequenced gp96-binding phage-expressed heptapeptides) [2, 3]: 13.95% | % actual (amino acid frequency in sequenced gp96-binding phage-expressed heptapeptides) [2, 4]: 8.9% | % actual (amino acid frequency in sequenced gp96-binding phage-expressed heptapeptides) [2, 5]: 10%

CC(C)C[C@H](N)C(=O)O [Leu]
% expected (amino acid frequency) ([1]; Table XII): 11.8% | % expected (amino acid frequency) ([1]; Table XIV): 11.8% | % expected (amino acid frequency) ([1]; Table XVI): 11.8% | % actual (amino acid frequency in sequenced gp96-binding phage-expressed heptapeptides) [2, 3]: 12.92% | % actual (amino acid frequency in sequenced gp96-binding phage-expressed heptapeptides) [2, 4]: 10.7% | % actual (amino acid frequency in sequenced gp96-binding phage-expressed heptapeptides) [2, 5]: 5.7%

O=C(O)[C@@H]1CCCN1 [Pro]
% expected (amino acid frequency) ([1]; Table XII): 12% | % expected (amino acid frequency) ([1]; Table XIV): 12% | % expected (amino acid frequency) ([1]; Table XVI): 12% | % actual (amino acid frequency in sequenced gp96-binding phage-expressed heptapeptides) [2, 3]: 10.88% | % actual (amino acid frequency in sequenced gp96-binding phage-expressed heptapeptides) [2, 4]: 14.2% | % actual (amino acid frequency in sequenced gp96-binding phage-expressed heptapeptides) [2, 5]: 12.8%

CC(C)[C@H](N)C(=O)O [Val]
% expected (amino acid frequency) ([1]; Table XII): 4.3% | % expected (amino acid frequency) ([1]; Table XIV): 4.3% | % expected (amino acid frequency) ([1]; Table XVI): 4.3% | % actual (amino acid frequency in sequenced gp96-binding phage-expressed heptapeptides) [2, 3]: 4.08% | % actual (amino acid frequency in sequenced gp96-binding phage-expressed heptapeptides) [2, 4]: 5.3% | % actual (amino acid frequency in sequenced gp96-binding phage-expressed heptapeptides) [2, 5]: 8.5%

N[C@@H](CC(=O)O)C(=O)O [Asp]
% expected (amino acid frequency) ([1]; Table XII): 2.1% | % expected (amino acid frequency) ([1]; Table XIV): 2.1% | % expected (amino acid frequency) ([1]; Table XVI): 2.1% | % actual (amino acid frequency in sequenced gp96-binding phage-expressed heptapeptides) [2, 3]: 2.04% | % actual (amino acid frequency in sequenced gp96-binding phage-expressed heptapeptides) [2, 4]: 0% | % actual (amino acid frequency in sequenced gp96-binding phage-expressed heptapeptides) [2, 5]: 1.4%

CSCC[C@H](N)C(=O)O [Met]
% expected (amino acid frequency) ([1]; Table XII): 3.3% | % expected (amino acid frequency) ([1]; Table XIV): 3.3% | % expected (amino acid frequency) ([1]; Table XVI): 3.3% | % actual (amino acid frequency in sequenced gp96-binding phage-expressed heptapeptides) [2, 3]: 2.0% | % actual (amino acid frequency in sequenced gp96-binding phage-expressed heptapeptides) [2, 4]: 0% | % actual (amino acid frequency in sequenced gp96-binding phage-expressed heptapeptides) [2, 5]: 2.85%

Phe-His-Trp-Trp-Trp (FHWWW; printed: Phe-His-Trp-Trp-Trp)
binding of phage-expressed peptides to gp96 ([2]; 20 mM HEPES pH 7.5, 100 mM KCl, 25 mM CaCl2, 5 mM MgAcetate, TWEEN-20, herbimycin A present): appeared to be favored

NC(=O)CC[C@H](N)C(=O)O [Gln]
% expected (amino acid frequency) ([1]; Table XII): 6.4% | % expected (amino acid frequency) ([1]; Table XIV): 6.4% | % expected (amino acid frequency) ([1]; Table XVI): 6.4% | % actual (amino acid frequency in sequenced gp96-binding phage-expressed heptapeptides) [2, 3]: 2.0% | % actual (amino acid frequency in sequenced gp96-binding phage-expressed heptapeptides) [2, 4]: 1.78% | % actual (amino acid frequency in sequenced gp96-binding phage-expressed heptapeptides) [2, 5]: 5.7%

N[C@@H](Cc1c[nH]cn1)C(=O)O [His]
% expected (amino acid frequency) ([1]; Table XII): 4.3% | % expected (amino acid frequency) ([1]; Table XIV): 4.3% | % expected (amino acid frequency) ([1]; Table XVI): 4.3% | % actual (amino acid frequency in sequenced gp96-binding phage-expressed heptapeptides) [2, 3]: 5.44% | % actual (amino acid frequency in sequenced gp96-binding phage-expressed heptapeptides) [2, 4]: 10.7% | % actual (amino acid frequency in sequenced gp96-binding phage-expressed heptapeptides) [2, 5]: 12.8%

NCC(=O)O [Gly]
% expected (amino acid frequency) ([1]; Table XII): 3.7% | % expected (amino acid frequency) ([1]; Table XIV): 3.7% | % expected (amino acid frequency) ([1]; Table XVI): 3.7% | % actual (amino acid frequency in sequenced gp96-binding phage-expressed heptapeptides) [2, 3]: 3.74% | % actual (amino acid frequency in sequenced gp96-binding phage-expressed heptapeptides) [2, 4]: 1.78% | % actual (amino acid frequency in sequenced gp96-binding phage-expressed heptapeptides) [2, 5]: 1.4%

Source: patent publication US20030194409A1, “Conjugate heat shock protein-binding peptides” (priority 2002, published 2003)
